Peptide text beside a SMILES is read from it.
Experiments:
[1] = system: Caco-2 cell monolayer; assay: Transepithelial transport through Caco-2 cell monolayers (Transwell); type: in vitro ADME; settings: Caco-2 monolayer on Transwell, 21 days, TEER > 1100 Ω × cm^2, 75 µg peptide in 0.75 mL HBSS apical, 37 °C, RP-HPLC UV 220 nm, mean ± SD, n. d. = not detected with RP-HPLC; for RP-HPLC Estimation AP (%): 120 min after 30 min equilibration, apical compartment, % of total peptide added; for RP-HPLC Estimation BL (%): A-B, 120 min, basolateral compartment, % of initial peptide added apically
Procedure: Caco-2 cells were obtained from DISCOG (University of Padova, Padova, Italy). The cells cultured in DMEM (high glucose) supplemented with 10% FBS, were used between 35 and 60 passages. In order to perform transepithelial transport, 8 × 10^4 cells were seeded on Transwell^© cell culture inserts (0.4 µm pore sizes, 12 mm diameter, 1.12 cm^2 grown surface; Corning Life Sciences, Tewksbury, MA, USA). Cells were grown, differentiated for 21 days and the monolayer integrity was estimated by transepithelial electrical resistance (TEER) (Millicell® ERS-2 volt-ohmmeter, EDM Millipore, Darmstadt, Germany) showing values higher than 1100 Ω × cm^2.
The intestinal barrier crossing capacity of the fractions or synthetic peptides through Caco-2 cells monolayer was evaluated using Transwell® insert model according to Tonolo et al.. Briefly, after 21 days of culturing, Caco-2 cells differentiated forming a monolayer that delimited an upper part (apical compartment) and lower part (basolateral compartment). The monolayer was rinsed three times with Hank’s balanced salt solution (HBSS) and 10 mM D-glucose and equilibrated for 30 min at 37 °C. After, cells were incubated in the presence of 0.75 mL HBSS containing 150 µg fraction or 75 µg peptide in the apical chamber at 37 °C for 120 min. Samples collected from both compartments (apical and basolateral) at different times were centrifuged at 11,600× g, filtered with 0.45 µm filter, frozen and lyophilized. Subsequently, the obtained samples were dissolved in 100 µL of 0.1% TFA aqueous solution and evaluated by RP-HPLC and Matrix assisted laser desorption/ionization- time of flight/time of flight mass spectrometry (MALDI-TOF/TOF MS).
The apical and basolateral compartments were evaluated in RP-HPLC using a column Onyx Monolithic C18 100 mm × 4.6 mm, LC column (Phenomenex, Torrance, CA, USA) with a Waters 2695 Separation Module (Milfold, MA, USA) with a Waters 996 Photodiode Array Detector. Separations were performed with a linear gradient from 0–60% ACN in the presence of 0.1% TFA over 20 min at a constant flow rate of 2 mL/min monitoring the peaks by UV detection (λ = 220 nm).
Subsequently, the obtained fractions were analysed with a MALDI-TOF/TOF 4800 mass spectrometer (AB Sciex, Framingham, MA, USA). After an initial full MS scan, enlargements on the MS signals of interest were acquired. For the basolateral fractions, the samples, after lyophilisation, were dissolved in 50 µL of 25% ACN and 0.1% TFA. The analysis was then performed on 2 µL of these solutions mixed with 2 µL of peptide MALDI matrix α-cyano-4-hydroxycynnamic acid (10 mg/mL aqueous 70% acetonitrile/0.1% TFA). The following analytical conditions were set for MALDI-TOF spectra acquisition: positive ion reflector mode, initial mass range 500–3500 Da (the mass range was then adapted for each enlargement), variable laser intensity (3000–3800), shots/sub-spectrum 50, total shots/spectrum 1500 and accelerating voltage of 20 kV. Final data analysis and fragments identification were done on Data Explorer software (AB Sciex, Framingham, MA, USA), utilizing external mass calibration performed with mass peptide standards (Sigma-Aldrich, St Louis, MO, USA).
In order to evaluate the intestinal crossing capacity of the four peptides, Transwell® insert model peptide absorption, was performed. […] After 10 min and 120 min, apical and basolateral compartments were collected and analyzed by RP-HPLC and mass spectrometry.

[2] = MTT cell viability (cytotoxicity); type: cell-based; settings: human, Caco-2 cells (1 × 10^4), synthetic peptides 0.05 mg/mL, no TbOOH, mean ± SD of at least three experiments, read-out: Percentage of Cell Viability, None (c)

Compound	RP-HPLC Estimation AP (%) [1]	RP-HPLC Estimation BL (%) [1]	viability at 24 h, 50 µg/mL [2]
CC[C@H](C)[C@H](NC(=O)[C@@H]1CCCN1C(=O)[C@H](CC(N)=O)NC(=O)[C@@H]1CCCN1C(=O)[C@@H](NC(=O)[C@H](CC(=O)O)NC(=O)[C@H](CO)NC(=O)[C@H](Cc1ccccc1)NC(=O)[C@H](CO)NC(=O)[C@@H]1CCCN1C(=O)[C@H](C)N)[C@@H](C)CC)C(=O)NCC(=O)N[C@@H](CO)C(=O)N[C@@H](CCC(=O)O)C(=O)N[C@@H](CC(N)=O)C(=O)N[C@@H](CO)C(=O)N[C@@H](CCC(=O)O)C(=O)O [A-17-E] (H-APSFSDIPNPIGSENSE-OH)	68.4 ± 4.6%	0.05 ± 0.03%	108 ± 13.2%
CC[C@H](C)[C@H](NC(=O)[C@H](CCCCN)NC(=O)[C@H](CC(=O)O)NC(=O)[C@H](CCC(N)=O)NC(=O)[C@H](CC(C)C)NC(=O)[C@H](CCC(=O)O)NC(=O)[C@@H](N)CC(=O)O)C(=O)N[C@@H](Cc1c[nH]cn1)C(=O)N1CCC[C@H]1C(=O)N[C@@H](Cc1ccccc1)C(=O)O [D-10-F] (H-DELQDKIHPF-OH)	4.17 ± 0.27%		
CSCC[C@H](NC(=O)[C@@H](NC(=O)[C@@H](NC(=O)[C@@H]1CCCN1C(=O)[C@H](CCC(N)=O)NC(=O)[C@H](C)NC(=O)[C@H](CCC(N)=O)NC(=O)[C@H](CS)NC(=O)[C@H](CO)NC(=O)[C@H](CCCCN)NC(=O)[C@H](C)N)[C@@H](C)O)[C@@H](C)O)C(=O)O [A-11-M] (H-AKSCQAQPTTM-OH)	44.96 ± 9.09%	0.16 ± 0.02%	
CC(C)[C@H](NC(=O)[C@H](CCC(N)=O)NC(=O)[C@H](CC(=O)O)NC(=O)[C@H](Cc1c[nH]c2ccccc12)NC(=O)[C@@H]1CCCN1C(=O)[C@@H](N)CC(N)=O)C(=O)N[C@@H](CCCCN)C(=O)N[C@@H](CCCNC(=N)N)C(=O)O [N-8-R] (H-NPWDQVKR-OH)	0.55 ± 0.15%		
CC[C@H](C)[C@H](NC(=O)[C@@H]1CCCN1C(=O)CNC(=O)[C@@H](N)CCC(N)=O)C(=O)N[C@H](C(=O)N[C@@H](CC(C)C)C(=O)N[C@@H](CC(N)=O)C(=O)N1CCC[C@H]1C(=O)N[C@@H](Cc1c[nH]c2ccccc12)C(=O)N[C@@H](CC(=O)O)C(=O)N[C@@H](CCC(N)=O)C(=O)N[C@H](C(=O)N[C@@H](CCCCN)C(=O)N[C@@H](CCCNC(=N)N)C(=O)O)C(C)C)C(C)C [Q-14-R] (H-QGPIVLNPWDQVKR-OH)	87.59 ± 12.18%	0.02 ± 0.01%	115 ± 15.6%
CSCC[C@H](NC(=O)[C@@H](NC(=O)[C@@H](NC(=O)[C@@H]1CCCN1C(=O)[C@H](CCC(N)=O)NC(=O)[C@H](C)NC(=O)[C@H](CCC(N)=O)NC(=O)[C@H](CS)NC(=O)[C@@H](N)CO)[C@@H](C)O)[C@@H](C)O)C(=O)O [S-9-M] (H-SCQAQPTTM-OH)		0.12 ± 0.03%	
CC[C@H](C)[C@H](NC(=O)[C@@H]1CCCN1C(=O)[C@H](CC(N)=O)NC(=O)[C@@H]1CCCN1C(=O)[C@@H](NC(=O)[C@H](CC(=O)O)NC(=O)[C@H](CO)NC(=O)[C@H](Cc1ccccc1)NC(=O)[C@@H](N)CO)[C@@H](C)CC)C(=O)NCC(=O)N[C@@H](CO)C(=O)N[C@@H](CCC(=O)O)C(=O)N[C@@H](CC(N)=O)C(=O)N[C@@H](CO)C(=O)N[C@@H](CCC(=O)O)C(=O)O [S-15-E] (H-SFSDIPNPIGSENSE-OH)	8.97 ± 0.53%	0.30 ± 0.07%	
CSCC[C@H](NC(=O)[C@@H](NC(=O)[C@@H](NC(=O)[C@@H]1CCCN1C(=O)[C@H](CCC(N)=O)NC(=O)[C@H](C)NC(=O)[C@H](CCC(N)=O)NC(=O)[C@H](CS)NC(=O)[C@H](CO)NC(=O)[C@H](CCCCN)NC(=O)[C@H](C)NC(=O)[C@@H]1CCCN1C(=O)[C@@H](N)C(C)C)[C@@H](C)O)[C@@H](C)O)C(=O)O [V-13-M] (H-VPAKSCQAQPTTM-OH)	2.21 ± 0.53%		
CC[C@H](C)[C@H](NC(=O)[C@@H]1CCCN1C(=O)CNC(=O)[C@@H](N)CCC(N)=O)C(=O)N[C@H](C(=O)N[C@@H](CC(C)C)C(=O)N[C@@H](CC(N)=O)C(=O)N1CCC[C@H]1C(=O)N[C@@H](Cc1c[nH]c2ccccc12)C(=O)N[C@@H](CC(=O)O)C(=O)N[C@@H](CCC(N)=O)C(=O)O)C(C)C [Q-11-Q] (H-QGPIVLNPWDQ-OH)		0.11 ± 0.01%	
CC[C@H](C)[C@H](N)C(=O)N[C@H](C(=O)N[C@@H](CC(C)C)C(=O)N[C@@H](CC(N)=O)C(=O)N1CCC[C@H]1C(=O)N[C@@H](Cc1c[nH]c2ccccc12)C(=O)N[C@@H](CC(=O)O)C(=O)N[C@@H](CCC(N)=O)C(=O)N[C@H](C(=O)N[C@@H](CCCCN)C(=O)N[C@@H](CCCNC(=N)N)C(=O)O)C(C)C)C(C)C [I-11-R] (H-IVLNPWDQVKR-OH)	1.47 ± 0.19%		
CC[C@H](C)[C@H](NC(=O)[C@@H]1CCCN1C(=O)[C@H](CC(N)=O)NC(=O)[C@@H]1CCCN1C(=O)[C@@H](NC(=O)[C@H](CC(=O)O)NC(=O)[C@H](CO)NC(=O)[C@@H](N)Cc1ccccc1)[C@@H](C)CC)C(=O)NCC(=O)N[C@@H](CO)C(=O)N[C@@H](CCC(=O)O)C(=O)N[C@@H](CC(N)=O)C(=O)N[C@@H](CO)C(=O)N[C@@H](CCC(=O)O)C(=O)O [F-14-E] (H-FSDIPNPIGSENSE-OH)	3.07 ± 0.60%		
CC[C@H](C)[C@H](NC(=O)[C@@H]1CCCN1C(=O)[C@H](CC(N)=O)NC(=O)[C@@H]1CCCN1C(=O)[C@@H](NC(=O)[C@H](CC(=O)O)NC(=O)[C@H](CO)NC(=O)[C@H](Cc1ccccc1)NC(=O)[C@H](CO)NC(=O)[C@@H]1CCCN1C(=O)[C@H](C)N)[C@@H](C)CC)C(=O)NCC(=O)N[C@@H](CO)C(=O)N[C@@H](CCC(=O)O)C(=O)N[C@@H](CC(N)=O)C(=O)N[C@@H](CO)C(=O)O [A-16-S] (H-APSFSDIPNPIGSENS-OH)	3.22 ± 0.00%		
CC[C@H](C)[C@H](NC(=O)[C@@H]1CCCN1C(=O)CN)C(=O)N[C@H](C(=O)N[C@@H](CC(C)C)C(=O)N[C@@H](CC(N)=O)C(=O)N1CCC[C@H]1C(=O)N[C@@H](Cc1c[nH]c2ccccc12)C(=O)N[C@@H](CC(=O)O)C(=O)N[C@@H](CCC(N)=O)C(=O)N[C@H](C(=O)N[C@@H](CCCCN)C(=O)N[C@@H](CCCNC(=N)N)C(=O)O)C(C)C)C(C)C [G-13-R] (H-GPIVLNPWDQVKR-OH)	3.19 ± 0.27%		
CC[C@H](C)[C@H](NC(=O)[C@@H]1CCCN1C(=O)CNC(=O)[C@@H](N)CCC(N)=O)C(=O)N[C@H](C(=O)N[C@@H](CC(C)C)C(=O)N[C@@H](CC(N)=O)C(=O)N1CCC[C@H]1C(=O)N[C@@H](Cc1c[nH]c2ccccc12)C(=O)N[C@@H](CC(=O)O)C(=O)N[C@@H](CCC(N)=O)C(=O)N[C@H](C(=O)N[C@@H](CCCCN)C(=O)O)C(C)C)C(C)C [Q-13-K] (H-QGPIVLNPWDQVK-OH)		0.07 ± 0.05%	
